The text below walks through data of patent US20110044938A1 (NYCOMED GMBH, priority 2006, published 2011).

The subject of assay [1] is subclones of RKO colon adenocarcinoma cells (RKOp27 or RKOp21) arrested by Ponasterone A. Briefly: Alamar Blue cell viability assay, cell cycle specific mode of action: cells arrested by ectopic p27Kip1 induced by Ponasterone A versus proliferating cells. The format is cell-based. The settings on record: Homo sapiens, RKO p27 induced (arrested) cells, 10 μM Ponasterone A, 72 hours, value = class bound given in Table A, read-out: −logIC50 RKO p27 induced (arrested) (converted). An outline of the steps:
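RKOp27 or RKOp21 cells, 15000/well in DMEM/10% FCS, either arrested by p27Kip1 induced with 10 μM Ponasterone A or proliferating without inducer; compound added after 24 h, 72 h at 37° C. Alamar Blue fluorescence (544/590 nm), viability as % of untreated cells; −log IC50 reported.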
Background: Alamar Blue is a resazurin reagent that responds to reducing activity.

Assay [2] concerns RKO (RKOp27) human colon adenocarcinoma cells. Nature of the assay: Alamar Blue cell viability assay, anti-proliferative/cytotoxic activity on proliferating RKO subclones. The format is cell-based. Conditions: RKOp27, 72 h, RKO p27 uninduced (proliferating) cells, value = class bound given in Table A, read-out: −logIC50 RKO p27 uninduced (proliferating) (converted). The method in brief: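 RKOp27 subclones (5000 cells/well) were exposed 24 h after seeding to semi-log compound dilutions in DMEM with 10% FCS, in quadruplicate, for 72 h at 37 °C. Viability was read by Alamar Blue fluorescence (544/590 nm) relative to untreated cells (1% DMSO medium). IC50 came from concentration-effect curves and is reported as −log IC50 [mol/l].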

On to `Cc1n[nH]cc1CNC(=O)OC1CCc2c(sc(NC(=O)CC(C)c3ccccc3)c2C#N)C1` (stereo not drawn) [Example 298, (3-Methyl-1H-pyrazol-4-ylmethyl)-carbamic acid 3-cyano-2-(3-phenyl-butanoylamino)-4,5,6,7-tetrahydro-benzo[b]thiophen-6-yl ester], for which the IC50 in assay [1] is not below 10000 nM; in assay [2] it was not above 501 nM.

For the molecule `CC(CC(=O)Nc1sc2c(c1C#N)CCC(OC(=O)NC(C)c1ccnn1C)C2)c1ccccc1` (stereo not drawn) [Example 299, [1-(2-Methyl-2H-pyrazol-3-yl)-ethyl]-carbamic acid 3-cyano-2-(3-phenyl-butanoylamino)-4,5,6,7-tetrahydro-benzo[b]thiophen-6-yl ester], the IC50 is not below 50100 nM in assay [1] and not above 501 nM in assay [2].

`CC(CC(=O)Nc1sc2c(c1C#N)CCC(OC(=O)NCc1cccn1C)C2)c1ccccc1` (stereo not drawn) [Example 300, (1-Methyl-1H-pyrrol-2-ylmethyl)-carbamic acid 3-cyano-2-(3-phenyl-butanoylamino)-4,5,6,7-tetrahydro-benzo[b] thiophen-6-yl ester]: the IC50 in assay [1] is not below 50100 nM; in assay [2] it was not above 501 nM.

As for `Cc1nn(C)cc1CNC(=O)OC1CCc2c(sc(NC(=O)CC(C)c3ccccc3)c2C#N)C1` (stereo not drawn) [Example 301, (1,3-Dimethyl-1H-pyrazol-4-ylmethyl)-carbamic acid 3-cyano-2-(3-phenyl-butanoylamino)-4,5,6,7-tetrahydro-benzo[b]thiophen-6-yl ester], the results for the IC50 in assay [1] and in assay [2] were not below 50100 nM and not above 501 nM, respectively.

In the case of `Cc1cc(CNC(=O)OC2CCc3c(sc(NC(=O)CC(C)c4ccccc4)c3C#N)C2)n(C)n1` (stereo not drawn) [Example 302, (2,5-Dimethyl-2H-pyrazol-3-ylmethyl)-carbamic acid 3-cyano-2-(3-phenyl-butanoylamino)-4,5,6,7-tetrahydro-benzo[b]thiophen-6-yl ester], the IC50 in assay [1] was not below 50100 nM; in assay [2] it was not above 501 nM.

Consider `CCn1nccc1CNC(=O)OC1CCc2c(sc(NC(=O)CC(C)c3ccccc3)c2C#N)C1` (stereo not drawn) [Example 303, (2-Ethyl-2H-pyrazol-3-ylmethyl)-carbamic acid 3-cyano-2-(3-phenyl-butanoylamino)-4,5,6,7-tetrahydro-benzo[b] thiophen-6-yl ester], for which the IC50 was not below 50100 nM in assay [1] and not above 501 nM in assay [2].

Take `CC(CC(=O)Nc1sc2c(c1C#N)CCC(COC(=O)NCc1ccccn1)C2)c1ccccc1` (stereo not drawn) [Example 304, Pyridin-2-ylmethyl-carbamic acid 3-cyano-2-(3-phenyl-butanoylamino)-4,5,6,7-tetrahydro-benzo[b] thiophen-6-ylmethyl ester]: the IC50 in assay [1] was not below 50100 nM; in assay [2], not above 501 nM.

As to `CC(CC(=O)Nc1sc2c(c1C#N)CCC(COC(=O)NCc1ccncc1)C2)c1ccccc1` (stereo not drawn) [Example 306, Pyridin-4-ylmethyl-carbamic acid 3-cyano-2-(3-phenyl-butanoyl-amino)-4,5,6,7-tetrahydro-benzo[b] thiophen-6-ylmethyl ester], the figures for the IC50 in assay [1] and in assay [2] were not below 50100 nM and not above 501 nM, respectively.

For the molecule `CC(CC(=O)Nc1sc2c(c1C#N)CCC(COC(=O)NCCc1cccnc1)C2)c1ccccc1` (stereo not drawn) [Example 307, (2-Pyridin-3-yl-ethyl)-carbamic acid 3-cyano-2-(3-phenyl-butanoylamino)-4,5,6,7-tetrahydro-benzo[b]thiophen-6-ylmethyl ester], the IC50 is not below 50100 nM in assay [1] and not above 501 nM in assay [2].

As for `CC(CC(=O)Nc1sc2c(c1C#N)CCC(COC(=O)NCC1CCOCC1)C2)c1ccccc1` (stereo not drawn) [Example 308, (Tetrahydro-pyran-4-ylmethyl)-carbamic acid 3-cyano-2-(3-phenyl-butanoylamino)-4,5,6,7-tetrahydro-benzo[b]thiophen-6-ylmethyl ester], the IC50 in assay [1] is not below 50100 nM; in assay [2], not above 501 nM.

Regarding `CC(CC(=O)Nc1sc2c(c1C#N)CCC(COC(=O)NC1CCOCC1)C2)c1ccccc1` (stereo not drawn) [Example 309, (Tetrahydro-pyran-4-yl)-carbamic acid 3-cyano-2-(3-phenyl-butanoylamino)-4,5,6,7-tetrahydro-benzo[b]thiophen-6-ylmethyl ester], the IC50 in assay [1] is not below 50100 nM; in assay [2], not above 501 nM.

Regarding `CC(CC(=O)Nc1sc2c(c1C#N)CCC(COC(=O)NCCn1ccnc1)C2)c1ccccc1` (stereo not drawn) [Example 310, (2-Imidazol-1-yl-ethyl)-carbamic acid 3-cyano-2-(3-phenyl-butanoyl-amino)-4,5,6,7-tetrahydro-benzo[b]thiophen-6-ylmethyl ester], the IC50 was not below 10000 nM in assay [1] and 501 to 2000 nM in assay [2].

Turning to `CC(CC(=O)Nc1sc2c(c1C#N)CCC(COC(=O)NCc1nccn1C)C2)c1ccccc1` (stereo not drawn) [Example 311, (1-Methyl-1H-imidazol-2-ylmethyl)-carbamic acid 3-cyano-2-(3-phenyl-butanoylamino)-4,5,6,7-tetrahydro-benzo[b] thiophen-6-ylmethyl ester], the values for the IC50 in assay [1] and in assay [2] were not below 10000 nM and not above 501 nM, respectively.

Turning to `CC(CC(=O)Nc1sc2c(c1C#N)CCC(COC(=O)NCc1cncn1C)C2)c1ccccc1` (stereo not drawn) [Example 312, (3-Methyl-3H-imidazol-4-ylmethyl)-carbamic acid 3-cyano-2-(3-phenyl-butanoylamino)-4,5,6,7-tetrahydro-benzo[b] thiophen-6-ylmethyl ester], the figures for the IC50 in assay [1] and in assay [2] were not below 10000 nM and not above 501 nM, respectively.

On to `CC(CC(=O)Nc1sc2c(c1C#N)CCC(COC(=O)NCc1ccnn1C)C2)c1ccccc1` (stereo not drawn) [Example 313, (2-Methyl-2H-pyrazol-3-ylmethyl)-carbamic acid 3-cyano-2-(3-phenyl-butanoylamino)-4,5,6,7-tetrahydro-benzo[b] thiophen-6-ylmethyl ester], for which the IC50 is not below 50100 nM in assay [1] and not above 501 nM in assay [2].

Turning to `Cc1cc(CNC(=O)OCC2CCc3c(sc(NC(=O)CC(C)c4ccccc4)c3C#N)C2)no1` (stereo not drawn) [Example 314, (5-Methyl-isoxazol-3-ylmethyl)-carbamic acid 3-cyano-2-(3-phenyl-butanoylamino)-4,5,6,7-tetrahydro-benzo[b] thiophen-6-ylmethyl ester], the figures for the IC50 in assay [1] and in assay [2] were not below 50100 nM and not above 501 nM, respectively.

For the molecule `CC(CC(=O)Nc1sc2c(c1C#N)CCC(COC(=O)NCC1CCCO1)C2)c1ccccc1` (stereo not drawn) [Example 315, (Tetrahydrofuran-2-ylmethyl)-carbamic acid 3-cyano-2-(3-phenyl-butanoylamino)-4,5,6,7-tetrahydro-benzo[b]thiophen-6-ylmethyl ester], the IC50 in assay [1] is not below 50100 nM; in assay [2] it was 501 to 2000 nM.

As for `CC(CC(=O)Nc1sc2c(c1C#N)CCC(COC(=O)NC(C)c1cccnc1)C2)c1ccccc1` (stereo not drawn) [Example 316, (1-Pyridin-3-yl-ethyl)-carbamic acid 3-cyano-2-(3-phenyl-butanoylamino)-4,5,6,7-tetrahydro-benzo[b] thiophen-6-ylmethyl ester], the IC50 in assay [1] was not below 10000 nM; in assay [2], not above 501 nM.

For the molecule `Cc1n[nH]cc1CNC(=O)OCC1CCc2c(sc(NC(=O)CC(C)c3ccccc3)c2C#N)C1` (stereo not drawn) [Example 317, (3-Methyl-1H-pyrazol-4-ylmethyl)-carbamic acid 3-cyano-2-(3-phenyl-butanoylamino)-4,5,6,7-tetrahydro-benzo[b] thiophen-6-ylmethyl ester], the IC50 in assay [1] is not below 10000 nM; in assay [2], not above 501 nM.

As for `CC(CC(=O)Nc1sc2c(c1C#N)CCC(COC(=O)NC(C)c1ccnn1C)C2)c1ccccc1` (stereo not drawn) [Example 318, [1-(2-Methyl-2H-pyrazol-3-yl)-ethyl]-carbamic acid 3-cyano-2-(3-phenyl-butanoylamino)-4,5,6,7-tetrahydro-benzo[b] thiophen-6-ylmethyl ester], the figures for the IC50 in assay [1] and in assay [2] were not below 10000 nM and not above 501 nM, respectively.

Consider `CC(CC(=O)Nc1sc2c(c1C#N)CCC(COC(=O)NCc1cccn1C)C2)c1ccccc1` (stereo not drawn) [Example 319, (1-Methyl-1H-pyrrol-2-ylmethyl)-carbamic acid 3-cyano-2-(3-phenyl-butanoylamino)-4,5,6,7-tetrahydro-benzo[b] thiophen-6-ylmethyl ester], for which the IC50 is not below 50100 nM in assay [1] and not above 501 nM in assay [2].

Consider `Cc1nn(C)cc1CNC(=O)OCC1CCc2c(sc(NC(=O)CC(C)c3ccccc3)c2C#N)C1` (stereo not drawn) [Example 320, (1,3-Dimethyl-1H-pyrazol-4-ylmethyl)-carbamic acid 3-cyano-2-(3-phenyl-butanoylamino)-4,5,6,7-tetrahydro-benzo[b]thiophen-6-ylmethyl ester], for which the IC50 in assay [1] was not below 10000 nM; in assay [2] it was not above 501 nM.

As for `Cc1cc(CNC(=O)OCC2CCc3c(sc(NC(=O)CC(C)c4ccccc4)c3C#N)C2)n(C)n1` (stereo not drawn) [Example 321, (2,5-Dimethyl-2H-pyrazol-3-ylmethyl)-carbamic acid 3-cyano-2-(3-phenyl-butanoylamino)-4,5,6,7-tetrahydro-benzo[b] thiophen-6-ylmethyl ester], the IC50 in assay [1] was not below 50100 nM; in assay [2] it was not above 501 nM.

As for `CCn1nccc1CNC(=O)OCC1CCc2c(sc(NC(=O)CC(C)c3ccccc3)c2C#N)C1` (stereo not drawn) [Example 322, (2-Ethyl-2H-pyrazol-3-ylmethyl)-carbamic acid 3-cyano-2-(3-phenyl-butanoylamino)-4,5,6,7-tetrahydro-benzo[b] thiophen-6-ylmethyl ester], the IC50 in assay [1] was not below 50100 nM; in assay [2] it was not above 501 nM.
